Assay results from patent publication US20230028441A1, “NOVEL HETEROARYL-TRIAZOLE COMPOUNDS AS PESTICIDES” (Bayer Aktiengesellschaft, priority 2019, published 2023).

Columns and labels:
Assay type in all cases: in vivo
[1] = tested on: fall armyworm larvae (Spodoptera frugiperda); assay: Spodoptera frugiperda spray test (maize leaf sections); details: 168 h
Outline: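 Maize leaf sections were sprayed with compound formulated in acetone/DMF and diluted in water containing 1000 ppm emulsifier. Once dry, sections were infested with fall armyworm larvae. Mortality (%) was scored after 7 days.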

[2] = tested on: cattle tick larvae (Rhipicephalus microplus), strain Parkhurst, resistant against synthetic pyrethroids; assay: Rhipicephalus (Boophilus) microplus in-vitro contact test, larval cattle tick; details: 5 μg/cm^2 (=500 g/ha), after 48 hours, read-out: efficacy (larvae dead or moribund)
Outline: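 Acetone solutions of compound were coated on glass tube walls (900 ppm giving 5 μg/cm^2) and dried. 20–50 pyrethroid-resistant Parkhurst larvae were held per tube at 27° C and 85% relative humidity; after 48 h negative geotaxis scored efficacy as percent larvae dead or moribund.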

[3] = tested on: caterpillars of the fall army worm (Spodoptera frugiperda); assay: Spodoptera frugiperda spray test (cotton leaves); details: 168 h
Outline: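 Cotton leaves sprayed with compound in water/DMF with 1000 ppm alkylaryl polyglycol ether emulsifier, ammonium salt and/or penetration enhancer at 1000 ppm added if necessary, then infested with fall armyworm caterpillars. Mortality in % scored after 7 days; 100% means all caterpillars killed.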

[4] = tested on: larvae of the banded cucumber beetle (Diabrotica balteata); assay: Diabrotica balteata spray test; details: 168 h, after 7 days, wheat seeds, read-out: efficacy (seedlings grown up); for pest or weed control at 32 µg/disc, 100 g/ha: 100 g/ha (=32 μg/well)
Outline: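 Germinated wheat seedlings (5 per well, agar plates) sprayed with compound in acetone/DMF diluted in water with 1000 ppm emulsifier, then infested with 10-20 larvae per unit. Efficacy scored after 7 days as % seedling growth relative to untreated, uninfested control (100% = normal growth, 0% = none).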

[5] = tested on: cattle ticks (Rhipicephalus microplus) strain Parkhurst, SP-resistant; assay: Rhipicephalus (Boophilus) microplus dip test; details: 100 ppm, egg deposition after 7 days
Description: Test animal: cattle ticks (Rhipicephalus microplus) strain Parkhurst, SP-resistant
Solvent: dimethyl sulfoxide
To produce a suitable preparation of active compound, 10 mg of active compound are dissolved in 0.5 mL solvent, and the concentrate is diluted with water to the desired concentration.
This compound solution is pipetted into tubes. 8-10 engorged, adult, female cattle ticks (Rhipicephalus microplus) are placed in perforated tubes. These tubes are immersed in the aqueous compound solution until the ticks are completely moistened. After the liquid has drained off, the ticks are transferred to a filter paper in a plastic tray and stored in a climate chamber.
After 7 days egg deposition of fertile eggs is monitored. Eggs where fertility is not visible are stored in a climate chamber till hatching after about 42 days. An efficacy of 100% means all eggs are infertile; 0% means all eggs are fertile.

[6] = tested on: Anopheles funestus strain FUMOZ-R; assay: Anopheles funestus test (ANPHFU surface treatment & contact assay); details: 24 hours after contact, read-out: efficacy (mortality)
Description: (§1) Solvent: Aceton+2000 ppm rapeseed oil methyl ester (RME)
(§2) In order to produce a sufficient, active ingredient containing solution it is necessary to solve the test compound in the solvent-mix (acetone at 2 mg/ml/RME 2000 ppm). This solution is pipetted onto a glazed tile and after evaporation of the acetone, adult mosquitoes of the species Anopheles funestus strain FUMOZ-R (Hunt et al., Med. Vet. Entomol. 2005 September; 19(3): 271-275) are placed onto the dried surface. The exposure time is 30 minutes.
(§3) Mortality in percent (%) is determined 24 hours after contact of the insects to the treated surface. 100% mortality means that all tested insects are dead, whereas 0% means that no insect died.

[7] = tested on: Blattella germanica strain PAULINIA; assay: Blattella germanica test (BLTTGE surface treatment & contact assay); details: 24 hours after contact, read-out: efficacy (mortality)
Description: as §1
as §2, with “animals” for “mosquitoes”, “Blattella germanica” for “Anopheles funestus”, “PAULINIA” for “FUMOZ-R (Hunt et al., Med. Vet. Entomol. 2005 September; 19(3): 271-275)”
as §3

[8] = tested on: green peach aphid (Myzus persicae); assay: Myzus persicae spray test; details: foliar, 120 h, 100 g/ha, after 5 days, Chinese cabbage leaf disks
Outline: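 Chinese cabbage leaf disks carrying all instars of Myzus persicae were sprayed with compound. The formulation was acetone/dimethylformamide diluted in water with 1000 ppm alkylarylpolyglycol ether emulsifier. Percent mortality was scored after 5 days, with 100% meaning all aphids killed.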

[9] = surface concentration 4 mg/m^2, 30 minutes exposure
[10] = surface concentration 20 mg/m^2, 30 minutes exposure

Row | SMILES | mortality at 100 g/ha [1] | mortality at 500 g/ha [1] | pest or weed control at 5 µg/cm2 [2] | mortality at 20 ppm [3] | pest or weed control at 32 µg/disc, 100 g/ha [4] | pest or weed control at 160 µg/disc, 500 g/ha ([4]; 500 g/ha (=160 μg/well)) | efficacy (infertile eggs) [5] | mortality at 4 mg/m2 [6, 9] | mortality at 20 mg/m2 [6, 10] | mortality at 4 mg/m2 [7, 9] | mortality at 20 mg/m2 [7, 10] | mortality at 100 g/ha [8]
1 | CC(NC(=O)c1cc(Cl)cc(C(F)(F)F)c1)c1nc(N)nn1-c1ccc(Cl)cn1 (racemic) [I-006, N-[1-[5-amino-2-(5-chloro-2-pyridyl)-1,2,4-triazol-3-yl]ethyl]-3-chloro-5-(trifluoromethyl)benzamide] | 100% | 100% | 100% | 100% | 100% | 100% |  |  |  |  |  | 
2 | CNc1nc(C(C)NC(=O)c2cc(C(F)(F)F)cc(C(F)(F)F)c2)n(-c2ncccn2)n1 (stereo not drawn) [I-088] | 100% |  | 100% |  | 100% |  | 100% | 90 to 100% | 90 to 100% | 90 to 100% | 90 to 100% | 100%
